Results as given in patent US12187773B2, “Modified GIP peptide analogues” (Antag Therapeutics ApS, priority 2018, dated 2025).
Where a SMILES comes first, the peptide text is derived from it. The star is where a group is joined. C16 diacid = O=C(O)CCCCCCCCCCCCCCC(=O)*

Tests used:
Format in all cases: cell-based
human GIP receptor [1] = target: T1, human GIP receptor (Homo sapiens, UniProt P48546); assay: cAMP agonism (CisBio cAMP Dynamic 2 HTRF assay); conditions: HEK293, read-out: cAMP agonism, % Efficacy, Table 1C, HEK-293 cells
T1 sequence (P48546 22-466): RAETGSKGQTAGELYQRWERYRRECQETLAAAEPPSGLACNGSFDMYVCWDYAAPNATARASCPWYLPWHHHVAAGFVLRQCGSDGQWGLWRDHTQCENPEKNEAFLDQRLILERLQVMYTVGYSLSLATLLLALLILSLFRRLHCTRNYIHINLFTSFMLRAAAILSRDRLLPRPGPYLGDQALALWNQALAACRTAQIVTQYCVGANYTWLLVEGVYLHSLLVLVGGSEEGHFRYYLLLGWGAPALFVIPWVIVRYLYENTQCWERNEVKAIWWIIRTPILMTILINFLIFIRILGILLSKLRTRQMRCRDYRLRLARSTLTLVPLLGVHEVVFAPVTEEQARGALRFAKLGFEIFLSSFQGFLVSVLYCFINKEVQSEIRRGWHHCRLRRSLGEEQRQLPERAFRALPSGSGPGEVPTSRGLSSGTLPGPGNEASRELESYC
Procedure: To test for agonistic properties at the GIP receptor, compounds were diluted and added to cells as described above and incubated for 30 min at 37° C. The resulting increase in intracellular cAMP was determined using the CisBio cAMP Dynamic 2 HTRF Assay Kit as described above.

human GIP receptor [2] = target: T1, human GIP receptor; assay: cAMP accumulation, agonism (DiscoveRx HitHunter cAMP XS assay); set-up: host or cells: COS-7 (transient, calcium phosphate; pCMV-Script vector); conditions: COS-7, read-out: cAMP agonism, Emax
Procedure: Transient transfected COS-7 cells expressing the human GIP receptor were seeded in white 96-well plates with a density of 3.5*10^4/well. The day after, the cells were washed twice with Hepes buffered saline (HBS) buffer and incubated with HBS and 1 mM 3-isobutyl-1-methylxanthine (IBMX) for 30 min at 37° C. To test for agonistic properties, ligands were added and incubated for 30 min at 37° C. In order to test for antagonistic properties, the cells were preincubated with the antagonists for 10 min prior to the addition of the agonist and subsequent incubated for 20 additional min. The HitHunter™ cAMP XS assay (DiscoveRx) was carried out according to the manufacturer's instructions.
In order to develop a GIP receptor antagonist with improved antagonistic properties, individual amino acid substitutions were conducted on GIP(3-30)NH2 and in particular at positions: 16, 18, 30 or 3, 16, 18, 30. The obtained peptides were lipidated at position 18 directly or via a linker. Both the agonistic and antagonistic profiles of the compounds were tested in cAMP accumulation experiments done in transiently transfected COS-7 cells expressing the human GIP receptor. To investigate if these mutated analogues still retained their antagonistic properties, their ability to inhibit a GIP-mediated cAMP response corresponding to 50-80% of maximum activation was examined.

human GIP receptor [3] = target: T1, human GIP receptor; assay: cAMP antagonism (CisBio cAMP Dynamic 2 HTRF assay); set-up: pCMV-Script vector; conditions: CisBio, HEK-293 cells; for IC50: cAMP antagonism, agonist GIP1-42 at EC50
Procedure: The in vitro functional activity of compounds towards human GIP receptor can also be determined in HEK-293 cells transiently expressing the receptor. On the day of the assay, cells were resuspended in HBSS buffer (Gibco, 14025-50) supplemented with 20 mM HEPES (Gibco, 15630-106), 0,1% Pluronic F-68 (Gibco, 24040-032) and 0,1% casein (Sigma, C4765), and plated in 384-well plates at a density of 5000 cells/well. The GIP peptide analogues of the present disclosure were diluted in HBSS buffer supplemented with 20 mM HEPES, 0,1% pluronic, 0,1% casein and 500 uM IBMX. […] The resulting decrease in intracellular cAMP was quantitatively determined using the CisBio cAMP Dynamic 2 HTRF Assay Kit. The assay is based on a competition between native cAMP produced by cells and cAMP labeled with the dye d2 for binding to a cryptate labeled antibody. The specific signal (i.e. energy transfer signal) is inversely proportional to the concentration of cAMP in the sample.
The cAMP-d2 conjugate and the antibody anti-cAMP-Cryptate, both diluted in lysis buffer provided in the kit, were added to the cells according to the manufacturer's protocol. The resulting competitive assay was incubated for 60 minutes at room temperature, and the signal was detected by using a PerkinElmer Envision® instrument with excitation at 320 nm and emission at 665 nm and 620 nm. The HTRF ratio (emission at 665 nm/620 nm*10,000) is inversely proportional to the amount of cAMP present and is converted to nM cAMP per well using a cAMP standard curve. The dose-response curves were fitted using the non-linear regression analysis (four-logistic parameter equation) in GraphPad Prism, whereby pIC50 values were estimated.

Structure (SMILES)	Emax (human GIP receptor [1]) [%]	Emax (human GIP receptor [2]) [%]	cAMP antagonism, % inhib (human GIP receptor [3]; Table 1C) [%]	IC50 (human GIP receptor [3]; nM (IC50), Table 1C) [nM]	IC50 (human GIP receptor [3]; pIC50, Table 1C) [nM]
CC[C@H](C)[C@H](NC(=O)[C@H](CO)NC(=O)[C@H](Cc1ccc(O)cc1)NC(=O)[C@H](CC(=O)O)NC(=O)[C@H](CO)NC(=O)[C@@H](NC(=O)[C@H](Cc1ccccc1)NC(=O)[C@@H](NC(=O)CNC(=O)[C@@H](N)CO)[C@@H](C)O)[C@@H](C)CC)C(=O)N[C@@H](C)C(=O)N[C@@H](CCSC)C(=O)N[C@@H](CC(=O)O)C(=O)N[C@@H](CCCNC(=N)N)C(=O)N[C@H](C(=O)N[C@@H](CCCCNC(=O)CC[C@H](NC(=O)CCCCCCCCCCCCCCC(=O)O)C(=O)O)C(=O)N[C@@H](CCC(N)=O)C(=O)N[C@@H](CCC(N)=O)C(=O)N[C@@H](CC(=O)O)C(=O)N[C@@H](Cc1ccccc1)C(=O)N[C@H](C(=O)N[C@@H](CC(N)=O)C(=O)N[C@@H](Cc1c[nH]c2ccccc12)C(=O)N[C@@H](CC(C)C)C(=O)N[C@@H](CC(C)C)C(=O)N[C@@H](C)C(=O)N[C@@H](CCC(N)=O)C(=O)N[C@@H](CCCNC(=N)N)C(=O)O)C(C)C)[C@@H](C)CC [AT265] (HELM PEPTIDE1{S.G.T.F.I.S.D.Y.S.I.A.M.D.R.I.K.Q.Q.D.F.V.N.W.L.L.A.Q.R}|PEPTIDE2{[O=C(O)CCCCCCCCCCCCCCC(=O)[*:2]].[gGlu]}$PEPTIDE1,PEPTIDE2,16:R3-2:R2$$$V2.0; N-terminus assumed)	8	10	73	58.4	–
CC[C@H](C)[C@H](NC(=O)[C@H](CO)NC(=O)[C@H](Cc1ccc(O)cc1)NC(=O)[C@H](CC(=O)O)NC(=O)[C@H](CO)NC(=O)[C@@H](NC(=O)[C@H](Cc1ccccc1)NC(=O)[C@@H](NC(=O)CNC(=O)[C@@H]1CCCN1)[C@@H](C)O)[C@@H](C)CC)C(=O)N[C@@H](C)C(=O)N[C@@H](CCSC)C(=O)N[C@@H](CC(=O)O)C(=O)N[C@@H](CCCNC(=N)N)C(=O)N[C@H](C(=O)N[C@@H](CCCCNC(=O)CCCCCCCCCCCCCCC(=O)O)C(=O)N[C@@H](CCC(N)=O)C(=O)N[C@@H](CCC(N)=O)C(=O)N[C@@H](CC(=O)O)C(=O)N[C@@H](Cc1ccccc1)C(=O)N[C@H](C(=O)N[C@@H](CC(N)=O)C(=O)N[C@@H](Cc1c[nH]c2ccccc12)C(=O)N[C@@H](CC(C)C)C(=O)N[C@@H](CC(C)C)C(=O)N[C@@H](C)C(=O)N[C@@H](CCC(N)=O)C(=O)N[C@@H](CCCNC(=N)N)C(=O)O)C(C)C)[C@@H](C)CC [AT261] (H-PGTFISDYSIAMDRIK(C16 diacid)QQDFVNWLLAQR-OH; N-terminus assumed)	0	24	62	200	–
CC[C@H](C)[C@H](NC(=O)[C@H](CO)NC(=O)[C@H](Cc1ccc(O)cc1)NC(=O)[C@H](CC(=O)O)NC(=O)[C@H](CO)NC(=O)[C@@H](NC(=O)[C@H](Cc1ccccc1)NC(=O)[C@@H](NC(=O)CNC(=O)[C@@H](N)CO)[C@@H](C)O)[C@@H](C)CC)C(=O)N[C@@H](C)C(=O)N[C@@H](CCSC)C(=O)N[C@@H](CC(=O)O)C(=O)N[C@@H](CCCNC(=N)N)C(=O)N[C@H](C(=O)N[C@@H](CCCCNC(=O)COCCOCCNC(=O)CC[C@H](NC(=O)CCCCCCCCCCCCCCC(=O)O)C(=O)O)C(=O)N[C@@H](CCC(N)=O)C(=O)N[C@@H](CCC(N)=O)C(=O)N[C@@H](CC(=O)O)C(=O)N[C@@H](Cc1ccccc1)C(=O)N[C@H](C(=O)N[C@@H](CC(N)=O)C(=O)N[C@@H](Cc1c[nH]c2ccccc12)C(=O)N[C@@H](CC(C)C)C(=O)N[C@@H](CC(C)C)C(=O)N[C@@H](C)C(=O)N[C@@H](CCC(N)=O)C(=O)N[C@@H](CCCNC(=N)N)C(=O)O)C(C)C)[C@@H](C)CC [AT271] (HELM PEPTIDE1{S.G.T.F.I.S.D.Y.S.I.A.M.D.R.I.K.Q.Q.D.F.V.N.W.L.L.A.Q.R}|PEPTIDE2{[O=C(O)CCCCCCCCCCCCCCC(=O)[*:2]].[gGlu].[O=C(COCCOCCN[*:1])[*:2]]}$PEPTIDE1,PEPTIDE2,16:R3-3:R2$$$V2.0; N-terminus assumed)	2	9	73	85.8	–
CC[C@H](C)[C@H](NC(=O)[C@H](CO)NC(=O)[C@H](Cc1ccc(O)cc1)NC(=O)[C@H](CC(=O)O)NC(=O)[C@H](CO)NC(=O)[C@@H](NC(=O)[C@H](Cc1ccccc1)NC(=O)[C@@H](NC(=O)CNC(=O)CN)[C@@H](C)O)[C@@H](C)CC)C(=O)N[C@@H](C)C(=O)N[C@@H](CCSC)C(=O)N[C@@H](CC(=O)O)C(=O)N[C@@H](CCCNC(=N)N)C(=O)N[C@H](C(=O)N[C@@H](CCCCNC(=O)CC[C@H](NC(=O)CCCCCCCCCCCCCCC(=O)O)C(=O)O)C(=O)N[C@@H](CCC(N)=O)C(=O)N[C@@H](CCC(N)=O)C(=O)N[C@@H](CC(=O)O)C(=O)N[C@@H](Cc1ccccc1)C(=O)N[C@H](C(=O)N[C@@H](CC(N)=O)C(=O)N[C@@H](Cc1c[nH]c2ccccc12)C(=O)N[C@@H](CC(C)C)C(=O)N[C@@H](CC(C)C)C(=O)N[C@@H](C)C(=O)N[C@@H](CCC(N)=O)C(=O)N[C@@H](CCCNC(=N)N)C(=O)O)C(C)C)[C@@H](C)CC [AT263] (HELM PEPTIDE1{G.G.T.F.I.S.D.Y.S.I.A.M.D.R.I.K.Q.Q.D.F.V.N.W.L.L.A.Q.R}|PEPTIDE2{[O=C(O)CCCCCCCCCCCCCCC(=O)[*:2]].[gGlu]}$PEPTIDE1,PEPTIDE2,16:R3-2:R2$$$V2.0; N-terminus assumed)	0	8	69	21	200
CC[C@H](C)[C@H](NC(=O)[C@H](CO)NC(=O)[C@H](Cc1ccc(O)cc1)NC(=O)[C@H](CC(=O)O)NC(=O)[C@H](CO)NC(=O)[C@@H](NC(=O)[C@H](Cc1ccccc1)NC(=O)[C@@H](N)[C@@H](C)O)[C@@H](C)CC)C(=O)N[C@@H](C)C(=O)N[C@@H](CC(C)C)C(=O)N[C@@H](CC(=O)O)C(=O)N[C@@H](CCCNC(=N)N)C(=O)N[C@H](C(=O)N[C@@H](CCCCNC(=O)CC[C@H](NC(=O)CCCCCCCCCCCCCCC(=O)O)C(=O)O)C(=O)N[C@@H](CCC(N)=O)C(=O)N[C@@H](CCC(N)=O)C(=O)N[C@@H](CC(=O)O)C(=O)N[C@@H](Cc1ccccc1)C(=O)N[C@H](C(=O)N[C@@H](CC(N)=O)C(=O)N[C@@H](Cc1c[nH]c2ccccc12)C(=O)N[C@@H](CC(C)C)C(=O)N[C@@H](CC(C)C)C(=O)N[C@@H](C)C(=O)N[C@@H](CCC(N)=O)C(=O)N[C@@H](CCCNC(=N)N)C(N)=O)C(C)C)[C@@H](C)CC [AT233] (HELM PEPTIDE1{T.F.I.S.D.Y.S.I.A.L.D.R.I.K.Q.Q.D.F.V.N.W.L.L.A.Q.R.[am]}|PEPTIDE2{[O=C(O)CCCCCCCCCCCCCCC(=O)[*:2]].[gGlu]}$PEPTIDE1,PEPTIDE2,14:R3-2:R2$$$V2.0; N-terminus assumed)	0	28	70	34.2	–
